Values after ≈ are worked out from the molar mass of the structure shown. One block for each compound: values may come before it.
What was measured:
Experiment in all cases: in vitro antibacterial evaluation, MIC by broth dilution
Type in all cases: cell-based
Enterococcus sp. = conditions: broth dilution, 18 hours at 35° C.
Method in brief: (§1)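 Read-out: the lowest concentration at which the test strain fails to grow. Serial dilutions (64-0.06 μg/mL) in Muller-Hinton II […], 5×10^5 CFU/mL inoculum, NCCLS M7-A2 procedure.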

Staphylococcus sp. = conditions: broth dilution, 18 hours at 35° C.
Method in brief: as §1

Streptococcus sp. = conditions: broth dilution, 18 hours at 35° C.
Method in brief: as §1

Escherichia coli = conditions: 18 hours at 35° C.

MIC Enterococcus avium (GC 4558) (Enterococcus sp.): >64 µg/mL
MIC Enterococcus faecalis (ATCC 29212) (Enterococcus sp.): >64 µg/mL
MIC Enterococcus faecalis (GC 2242) (Enterococcus sp.): >64 µg/mL
MIC Enterococcus faecalis (GC 4552) (Enterococcus sp.): >64 µg/mL
MIC Enterococcus faecalis (GC 4553) (Enterococcus sp.): >64 µg/mL
MIC Enterococcus faecalis (GC 4554) (Enterococcus sp.): >64 µg/mL
MIC Enterococcus faecium (GC 2243) (Enterococcus sp.): >64 µg/mL
MIC Enterococcus faecium (GC 4556) (Enterococcus sp.): >64 µg/mL
MIC Enterococcus faecium (GC 4557) (Enterococcus sp.): 64 µg/mL (≈ 45.4 µM)
MIC Enterococcus faecalis (ATCC 29212) (Enterococcus sp.; strain ATCC 29212): >64 µg/mL
MIC Enterococcus faecalis (GC 2242) (Enterococcus sp.; strain GC 2242): >64 µg/mL
MIC Enterococcus faecium (GC 2243) (Enterococcus sp.; strain GC 2243): >64 µg/mL
MIC Enterococcus faecalis (GC 4552) (Enterococcus sp.; strain GC 4552): >64 µg/mL
MIC Enterococcus faecalis (GC 4553) (Enterococcus sp.; strain GC 4553): >64 µg/mL
MIC Enterococcus faecalis (GC 4554) (Enterococcus sp.; strain GC 4554): >64 µg/mL
MIC Enterococcus faecium (GC 4556) (Enterococcus sp.; strain GC 4556): >64 µg/mL
MIC Enterococcus faecium (GC 4557) (Enterococcus sp.; strain GC 4557): 64 µg/mL (≈ 45.4 µM)
MIC Enterococcus avium (GC 4558) (Enterococcus sp.; strain GC 4558): >64 µg/mL
MIC Coagulase Negative Staphylococcus (GC 4547) (Staphylococcus sp.): >64 µg/mL
MIC Coagulase Negative Staphylococcus (GC 4548) (Staphylococcus sp.): >64 µg/mL
MIC Coagulase Negative Staphylococcus (GC 4549) (Staphylococcus sp.): >64 µg/mL
MIC Coagulase Negative Staphylococcus (GC 4551) (Staphylococcus sp.): >64 µg/mL
MIC Coagulase Negative Staphylococcus (ID-3941) (Staphylococcus sp.): 64 µg/mL (≈ 45.4 µM)
MIC Staphylococcus aureus (ATCC 29213) (Staphylococcus sp.): >64 µg/mL
MIC Staphylococcus aureus (GC 1131) (Staphylococcus sp.): >64 µg/mL
MIC Staphylococcus aureus (GC 4541) (Staphylococcus sp.): >64 µg/mL
MIC Staphylococcus aureus (GC 4542) (Staphylococcus sp.): >64 µg/mL
MIC Staphylococcus aureus (GC 4544) (Staphylococcus sp.): >64 µg/mL
MIC Staphylococcus aureus (GC 4545) (Staphylococcus sp.): >64 µg/mL
MIC Staphylococcus aureus-SMITH (GC 4543) (Staphylococcus sp.): >64 µg/mL
MIC Staphylococcus aureus (ATCC 29213) (Staphylococcus sp.; strain ATCC 29213): >64 µg/mL
MIC Staphylococcus aureus (GC 1131) (Staphylococcus sp.; strain GC 1131): >64 µg/mL
MIC Staphylococcus aureus (GC 4541) (Staphylococcus sp.; strain GC 4541): >64 µg/mL
MIC Staphylococcus aureus (GC 4542) (Staphylococcus sp.; strain GC 4542): >64 µg/mL
MIC Staphylococcus aureus-SMITH (GC 4543) (Staphylococcus sp.; strain GC 4543): >64 µg/mL
MIC Staphylococcus aureus (GC 4544) (Staphylococcus sp.; strain GC 4544): >64 µg/mL
MIC Staphylococcus aureus (GC 4545) (Staphylococcus sp.; strain GC 4545): >64 µg/mL
MIC Coagulase Negative Staphylococcus (GC 4547) (Staphylococcus sp.; strain GC 4547): >64 µg/mL
MIC Coagulase Negative Staphylococcus (GC 4548) (Staphylococcus sp.; strain GC 4548): >64 µg/mL
MIC Coagulase Negative Staphylococcus (GC 4549) (Staphylococcus sp.; strain GC 4549): >64 µg/mL
MIC Coagulase Negative Staphylococcus (GC 4551) (Staphylococcus sp.; strain GC 4551): >64 µg/mL
MIC Coagulase Negative Staphylococcus (ID-3941) (Staphylococcus sp.; strain ID-3941): 64 µg/mL (≈ 45.4 µM)
MIC Streptococcus agalactiae (GC 4564) (Streptococcus sp.): >64 µg/mL
MIC Streptococcus pneumoniae (GC 4565) (Streptococcus sp.): 64 µg/mL (≈ 45.4 µM)
MIC Streptococcus pyogenes (ID-3187) (Streptococcus sp.): 64 µg/mL (≈ 45.4 µM)
MIC Streptococcus agalactiae (GC 4564) (Streptococcus sp.; strain GC 4564): >64 µg/mL
MIC Streptococcus pneumoniae (GC 4565) (Streptococcus sp.; strain GC 4565): 64 µg/mL (≈ 45.4 µM)
MIC Streptococcus pyogenes (ID-3187) (Streptococcus sp.; strain ID-3187): 64 µg/mL (≈ 45.4 µM)
MIC Escherichia coli (ATCC 25922) (Escherichia coli): >64 µg/mL
MIC Escherichia coli (GC 4559) (Escherichia coli): >64 µg/mL
MIC Escherichia coli (GC 4560) (Escherichia coli): 4 µg/mL (≈ 2.84 µM)
Structure (SMILES): CCCCCNC(=O)OC1C(CO)OC(OC2C(CO)OC(Oc3ccc(CC4NC(=O)C(C(C)c5ccccc5)NC(=O)CNC(=O)C(CO)NC(=O)C(C(O)C5CNC(=N)N5C5OC(CO)C(O)C(O)C5O)NC(=O)C(C(O)C5CNC(=N)N5)NC4=O)cc3)C(O)C2O)C(O)C1O (stereo not drawn) [Example 251]
MIC Staphylococcus haemolyticus (GC 4546) (Staphylococcus sp.): >64 µg/mL
MIC Staphylococcus haemolyticus (GC 4546) (Staphylococcus sp.; strain GC 4546): >64 µg/mL

MIC Enterococcus avium (GC 4558) (Enterococcus sp.): 64 µg/mL (≈ 44 µM)
MIC Enterococcus faecalis (ATCC 29212) (Enterococcus sp.): >128 µg/mL
MIC Enterococcus faecalis (GC 2242) (Enterococcus sp.): 128 µg/mL (≈ 87.9 µM)
MIC Enterococcus faecalis (GC 2691) (Enterococcus sp.): >128 µg/mL
MIC Enterococcus faecalis (GC 3059) (Enterococcus sp.): >128 µg/mL
MIC Enterococcus faecalis (GC 4552) (Enterococcus sp.): >128 µg/mL
MIC Enterococcus faecalis (GC 4553) (Enterococcus sp.): 128 µg/mL (≈ 87.9 µM)
MIC Enterococcus faecalis (GC 4554) (Enterococcus sp.): >128 µg/mL
MIC Enterococcus faecalis (GC 6189) (Enterococcus sp.): >128 µg/mL
MIC Enterococcus faecium (GC 2243) (Enterococcus sp.): >128 µg/mL
MIC Enterococcus faecium (GC 4556) (Enterococcus sp.): >128 µg/mL
MIC Enterococcus faecium (GC 4557) (Enterococcus sp.): 128 µg/mL (≈ 87.9 µM)
MIC Enterococcus faecalis (ATCC 29212) (Enterococcus sp.; inoculum 5×10^5 CFU/mL, strain ATCC 29212): >128 µg/mL
MIC Enterococcus faecalis (GC 2242) (Enterococcus sp.; inoculum 5×10^5 CFU/mL, strain GC 2242): 128 µg/mL (≈ 87.9 µM)
MIC Enterococcus faecium (GC 2243) (Enterococcus sp.; inoculum 5×10^5 CFU/mL, strain GC 2243): >128 µg/mL
MIC Enterococcus faecalis (GC 2691) (Enterococcus sp.; inoculum 5×10^5 CFU/mL, strain GC 2691): >128 µg/mL
MIC Enterococcus faecalis (GC 3059) (Enterococcus sp.; inoculum 5×10^5 CFU/mL, strain GC 3059): >128 µg/mL
MIC Enterococcus faecalis (GC 4552) (Enterococcus sp.; inoculum 5×10^5 CFU/mL, strain GC 4552): >128 µg/mL
MIC Enterococcus faecalis (GC 4553) (Enterococcus sp.; inoculum 5×10^5 CFU/mL, strain GC 4553): 128 µg/mL (≈ 87.9 µM)
MIC Enterococcus faecalis (GC 4554) (Enterococcus sp.; inoculum 5×10^5 CFU/mL, strain GC 4554): >128 µg/mL
MIC Enterococcus faecium (GC 4556) (Enterococcus sp.; inoculum 5×10^5 CFU/mL, strain GC 4556): >128 µg/mL
MIC Enterococcus faecium (GC 4557) (Enterococcus sp.; inoculum 5×10^5 CFU/mL, strain GC 4557): 128 µg/mL (≈ 87.9 µM)
MIC Enterococcus avium (GC 4558) (Enterococcus sp.; inoculum 5×10^5 CFU/mL, strain GC 4558): 64 µg/mL (≈ 44 µM)
MIC Enterococcus faecalis (GC 6189) (Enterococcus sp.; inoculum 5×10^5 CFU/mL, strain GC 6189): >128 µg/mL
MIC Coagulase Negative Staphylococcus (GC 4547) (Staphylococcus sp.): >128 µg/mL
MIC Coagulase Negative Staphylococcus (GC 4548) (Staphylococcus sp.): >128 µg/mL
MIC Coagulase Negative Staphylococcus (GC 4549) (Staphylococcus sp.): >128 µg/mL
MIC Coagulase Negative Staphylococcus (GC 4551) (Staphylococcus sp.): >128 µg/mL
MIC Coagulase Negative Staphylococcus (GC 6257) (Staphylococcus sp.): >128 µg/mL
MIC Staphylococcus aureus (ATCC 29213) (Staphylococcus sp.): >128 µg/mL
MIC Staphylococcus aureus (GC 1131) (Staphylococcus sp.): >128 µg/mL
MIC Staphylococcus aureus (GC 3051) (Staphylococcus sp.): >128 µg/mL
MIC Staphylococcus aureus (GC 3053) (Staphylococcus sp.): >128 µg/mL
MIC Staphylococcus aureus (GC 4541) (Staphylococcus sp.): >128 µg/mL
MIC Staphylococcus aureus (GC 4542) (Staphylococcus sp.): >128 µg/mL
MIC Staphylococcus aureus (GC 4544) (Staphylococcus sp.): >128 µg/mL
MIC Staphylococcus aureus (GC 4545) (Staphylococcus sp.): >128 µg/mL
MIC Staphylococcus aureus-SMITH (GC 4543) (Staphylococcus sp.): >128 µg/mL
MIC Staphylococcus aureus (ATCC 29213) (Staphylococcus sp.; strain ATCC 29213): >128 µg/mL
MIC Staphylococcus aureus (GC 1131) (Staphylococcus sp.; strain GC 1131): >128 µg/mL
MIC Staphylococcus aureus (GC 3051) (Staphylococcus sp.; strain GC 3051): >128 µg/mL
MIC Staphylococcus aureus (GC 3053) (Staphylococcus sp.; strain GC 3053): >128 µg/mL
MIC Staphylococcus aureus (GC 4541) (Staphylococcus sp.; strain GC 4541): >128 µg/mL
MIC Staphylococcus aureus (GC 4542) (Staphylococcus sp.; strain GC 4542): >128 µg/mL
MIC Staphylococcus aureus-SMITH (GC 4543) (Staphylococcus sp.; strain GC 4543): >128 µg/mL
MIC Staphylococcus aureus (GC 4544) (Staphylococcus sp.; strain GC 4544): >128 µg/mL
MIC Staphylococcus aureus (GC 4545) (Staphylococcus sp.; strain GC 4545): >128 µg/mL
MIC Coagulase Negative Staphylococcus (GC 4547) (Staphylococcus sp.; strain GC 4547): >128 µg/mL
MIC Coagulase Negative Staphylococcus (GC 4548) (Staphylococcus sp.; strain GC 4548): >128 µg/mL
MIC Coagulase Negative Staphylococcus (GC 4549) (Staphylococcus sp.; strain GC 4549): >128 µg/mL
MIC Coagulase Negative Staphylococcus (GC 4551) (Staphylococcus sp.; strain GC 4551): >128 µg/mL
MIC Coagulase Negative Staphylococcus (GC 6257) (Staphylococcus sp.; strain GC 6257): >128 µg/mL
MIC Streptococcus agalactiae (GC 4564) (Streptococcus sp.): >128 µg/mL
MIC Streptococcus pneumoniae (ATCC 6301) (Streptococcus sp.): 128 µg/mL (≈ 87.9 µM)
MIC Streptococcus pneumoniae (GC 1894) (Streptococcus sp.): 128 µg/mL (≈ 87.9 µM)
MIC Streptococcus pneumoniae (GC 4565) (Streptococcus sp.): 128 µg/mL (≈ 87.9 µM)
MIC Streptococcus pyogenes (GC 4563) (Streptococcus sp.): >128 µg/mL
MIC Streptococcus pneumoniae (ATCC 6301) (Streptococcus sp.; inoculum 5×10^5 CFU/mL, strain ATCC 6301): 128 µg/mL (≈ 87.9 µM)
MIC Streptococcus pneumoniae (GC 1894) (Streptococcus sp.; inoculum 5×10^5 CFU/mL, strain GC 1894): 128 µg/mL (≈ 87.9 µM)
MIC Streptococcus pyogenes (GC 4563) (Streptococcus sp.; inoculum 5×10^5 CFU/mL, strain GC 4563): >128 µg/mL
MIC Streptococcus agalactiae (GC 4564) (Streptococcus sp.; inoculum 5×10^5 CFU/mL, strain GC 4564): >128 µg/mL
MIC Streptococcus pneumoniae (GC 4565) (Streptococcus sp.; inoculum 5×10^5 CFU/mL, strain GC 4565): 128 µg/mL (≈ 87.9 µM)
MIC Escherichia coli (ATCC 25922) (Escherichia coli): >128 µg/mL
MIC Escherichia coli (GC 4559) (Escherichia coli): >128 µg/mL
MIC Escherichia coli (GC 4560) (Escherichia coli): 32 µg/mL (≈ 22 µM)
Structure (SMILES): CC(c1ccccc1)C1NC(=O)CNC(=O)C(CO)NC(=O)C(C(O)C2CNC(=N)N2C2OC(CO)C(O)C3OC(C)(C)OC32)NC(=O)C(C(O)C2CNC(=N)N2)NC(=O)C(Cc2ccc(OC3OC(CO)C(OC4OC5COC(C)(C)OC5C5OC(C)(C)OC45)C4OC(C)(C)OC34)cc2)NC1=O (stereo not drawn) [Example 229b]
MIC Staphylococcus haemolyticus (GC 4546) (Staphylococcus sp.): >128 µg/mL
MIC Staphylococcus haemolyticus (GC 4546) (Staphylococcus sp.; strain GC 4546): >128 µg/mL

Source: patent US6914045B2, “Glycopeptide antibiotics” (Wyeth Holdings Corporation, priority 2001, dated 2005)
